Source: PubChem BioAssay (NCI)
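Growth conditions: 96-well plates. Treatment: test compound, 48 hours, 5 concentrations. Analysis: linear interpolation between bracketing concentrations; unreached endpoints set to highest concentration. TGI denotes the concentration required for complete inhibition of growth.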

How the values were obtained:
Assay in all cases: NCI anticancer screen, dose series, 48 h
[1] = system: RXF 393 renal
[2] = system: A549 NSCLC
[3] = system: SNB-19 CNS
[4] = system: SK-MEL-5 melanoma
[5] = system: MOLT-4 leukemia
[6] = system: SF-268 CNS
[7] = system: SK-MEL-2 melanoma
[8] = system: SW-620 colon
[9] = system: A498 renal
[10] = system: MALME-3M melanoma
[11] = system: RPMI-8226 leukemia
[12] = system: SF-295 CNS
[13] = system: UO-31 renal
[14] = system: OVCAR-3 ovarian
[15] = system: NCI-H460 lung
[16] = system: COLO 205 colon

COC(=O)NC(=O)c1cn(CCCOC(=O)CCCCCCCCC(=O)OCCCn2cc(C(=O)NC(=O)OC)c(=O)[nH]c2=O)c(=O)[nH]c1=O
TGI [1]: 75 µM | TGI [2]: > 100 µM | TGI [3]: 76.5 µM | TGI [4]: > 100 µM | TGI [5]: > 100 µM | TGI [6]: > 100 µM | TGI [7]: > 100 µM | TGI [8]: > 100 µM | TGI [9]: > 100 µM | TGI [10]: > 100 µM | TGI [11]: > 100 µM | TGI [12]: > 100 µM | TGI [13]: > 100 µM | TGI [14]: > 100 µM | TGI [15]: > 100 µM

Cc1cc(N(CCC#N)CCC#N)ccc1N=Nc1cccc(Cl)c1
TGI [1]: > 100 µM | TGI [2]: > 100 µM | TGI [16]: > 100 µM | TGI [3]: > 100 µM | TGI [4]: > 100 µM | TGI [7]: > 100 µM | TGI [8]: > 100 µM | TGI [9]: > 100 µM | TGI [10]: > 100 µM | TGI [11]: > 100 µM | TGI [12]: > 100 µM | TGI [13]: > 100 µM | TGI [14]: > 100 µM | TGI [15]: > 100 µM

Cc1nc(Nc2ccccc2)sc1C(=O)NNc1ccc([N+](=O)[O-])cc1[N+](=O)[O-]
TGI [1]: 78.5 µM | TGI [2]: > 100 µM | TGI [16]: > 100 µM | TGI [3]: > 100 µM | TGI [4]: 68.5 µM | TGI [5]: 69.7 µM | TGI [6]: > 100 µM | TGI [7]: > 100 µM | TGI [8]: > 100 µM | TGI [10]: > 100 µM | TGI [12]: > 100 µM | TGI [13]: > 100 µM | TGI [14]: > 100 µM | TGI [15]: > 100 µM

CCc1cccc(CC)c1NC(=O)C1=C(C)NC(C)=C(C(=O)Nc2c(CC)cccc2CC)C1c1ccc2c(c1)OCO2
TGI [2]: 66.5 µM | TGI [16]: 26.2 µM | TGI [3]: 33 µM | TGI [4]: 33 µM | TGI [5]: > 100 µM | TGI [6]: 35.9 µM | TGI [7]: 33.7 µM | TGI [8]: 31.5 µM | TGI [9]: 38.9 µM | TGI [10]: 29.7 µM | TGI [11]: > 100 µM | TGI [12]: 29.2 µM | TGI [13]: 30.8 µM | TGI [14]: 27.2 µM | TGI [15]: 28.6 µM

CCN(CC)Cc1cc(Nc2c3ccccc3nc3c4ccccc4n(C)c23)ccc1O
TGI [1]: 25.5 µM | TGI [2]: 28.2 µM | TGI [16]: 17.1 µM | TGI [3]: 33.4 µM | TGI [4]: 6.6 µM | TGI [5]: 8.47 µM | TGI [6]: 52.4 µM | TGI [7]: 36.2 µM | TGI [8]: 18.6 µM | TGI [9]: 27.8 µM | TGI [10]: 27 µM | TGI [11]: 15.3 µM | TGI [12]: 21.8 µM | TGI [13]: 22.8 µM | TGI [15]: 24.5 µM

CC(=O)NC(CCCNC(=O)NCCCl)C(=O)NCc1ccccc1 (stereo not drawn)
TGI [1]: > 100 µM | TGI [2]: > 100 µM | TGI [16]: > 100 µM | TGI [3]: > 100 µM | TGI [4]: > 100 µM | TGI [5]: > 100 µM | TGI [6]: > 100 µM | TGI [7]: > 100 µM | TGI [8]: > 100 µM | TGI [10]: > 100 µM | TGI [11]: > 100 µM | TGI [12]: > 100 µM | TGI [13]: > 100 µM | TGI [14]: > 100 µM | TGI [15]: > 100 µM

CC1C=C[C@H](Sc2ccccc2)CC[C@@]1(C)O (stereo partly drawn)
TGI [1]: > 100 µM | TGI [2]: > 100 µM | TGI [16]: > 100 µM | TGI [3]: > 100 µM | TGI [4]: > 100 µM | TGI [5]: > 100 µM | TGI [7]: > 100 µM | TGI [8]: > 100 µM | TGI [9]: > 100 µM | TGI [10]: > 100 µM | TGI [11]: > 100 µM | TGI [13]: > 100 µM | TGI [15]: > 100 µM

COc1ccc(N2C(=O)[C@@H]3[C@H](C2=O)c2[nH]c4ccccc4c2C2CCC(C(C)(C)C)C[C@@H]23)cc1 (stereo partly drawn)
TGI [1]: 46 µM | TGI [2]: > 80.3 µM | TGI [16]: > 84.2 µM | TGI [3]: > 61.4 µM | TGI [4]: > 100 µM | TGI [5]: > 100 µM | TGI [6]: > 100 µM | TGI [7]: > 89.9 µM | TGI [8]: > 100 µM | TGI [9]: 64 µM | TGI [10]: > 85 µM | TGI [11]: > 100 µM | TGI [12]: 29.4 µM | TGI [13]: > 78.4 µM | TGI [14]: > 75.7 µM | TGI [15]: > 100 µM

CCc1cccc(C(C)CC)c1NC(=O)C(=O)C(CC(=O)Nc1ccc(Cl)c(Cl)c1)C(=O)OC (stereo not drawn)
TGI [1]: > 100 µM | TGI [2]: > 100 µM | TGI [16]: > 100 µM | TGI [3]: > 100 µM | TGI [5]: > 100 µM | TGI [6]: > 100 µM | TGI [7]: > 100 µM | TGI [8]: > 100 µM | TGI [9]: > 100 µM | TGI [10]: > 100 µM | TGI [11]: > 100 µM | TGI [12]: > 100 µM | TGI [13]: > 100 µM | TGI [14]: > 100 µM | TGI [15]: > 100 µM

CC(C)(Oc1ccc2c(=O)cc(-c3ccccc3)oc2c1)C(=O)Nc1c(Cl)cccc1Cl
TGI [1]: 30.2 µM | TGI [2]: > 100 µM | TGI [3]: > 100 µM | TGI [4]: > 100 µM | TGI [5]: > 100 µM | TGI [6]: > 100 µM | TGI [7]: > 100 µM | TGI [8]: > 100 µM | TGI [9]: > 100 µM | TGI [10]: > 100 µM | TGI [11]: > 100 µM | TGI [12]: > 100 µM | TGI [13]: > 100 µM | TGI [14]: > 100 µM | TGI [15]: > 100 µM

COC(=O)c1ccccc1NC(=O)C(=O)CC(=O)CC(c1ccccc1)c1c(O)c2ccccc2oc1=O (stereo not drawn)
TGI [1]: > 100 µM | TGI [2]: > 100 µM | TGI [16]: > 100 µM | TGI [3]: > 100 µM | TGI [4]: > 100 µM | TGI [5]: > 100 µM | TGI [6]: > 100 µM | TGI [7]: > 100 µM | TGI [8]: > 100 µM | TGI [9]: > 100 µM | TGI [10]: > 100 µM | TGI [11]: > 100 µM | TGI [12]: > 100 µM | TGI [13]: > 100 µM | TGI [14]: > 100 µM | TGI [15]: > 100 µM

CCCCCCCCCCCC(=O)c1c(O)cccc1O
TGI [1]: 40.4 µM | TGI [2]: 33.7 µM | TGI [16]: 29 µM | TGI [3]: 30.4 µM | TGI [4]: 26.7 µM | TGI [5]: 47.8 µM | TGI [6]: 30.4 µM | TGI [7]: 30 µM | TGI [8]: 33.5 µM | TGI [10]: 29.5 µM | TGI [11]: 68.5 µM | TGI [12]: 31.4 µM | TGI [13]: 30.2 µM | TGI [14]: 31.4 µM | TGI [15]: 42.9 µM
